We go through one compound from ChEMBL document CHEMBL5727227, “N-((het) arylmethyl)-heteroaryl-carboxamides compounds as plasma kallikrein inhibitors” (2019).

The target in the assay is Plasma kallikrein (Homo sapiens, UniProt P03952). In words: Inhibitory Activity In Vitro Assay : Plasma kallikrein inhibitory activity in vitro was determined using standard published methods. Human plasma kallikrein (Protogen) was incubated at 25° C. with the fluorogenic substrate H-DPro-Phe-Arg-AFC and various concentrations of the test compound. Residual enzyme activity (initial rate of reaction) was determined by measuring the change in […] and the IC50 value for the test compound was determined.
Plasma kallikrein, sequence (P03952 20-390 limits assumed): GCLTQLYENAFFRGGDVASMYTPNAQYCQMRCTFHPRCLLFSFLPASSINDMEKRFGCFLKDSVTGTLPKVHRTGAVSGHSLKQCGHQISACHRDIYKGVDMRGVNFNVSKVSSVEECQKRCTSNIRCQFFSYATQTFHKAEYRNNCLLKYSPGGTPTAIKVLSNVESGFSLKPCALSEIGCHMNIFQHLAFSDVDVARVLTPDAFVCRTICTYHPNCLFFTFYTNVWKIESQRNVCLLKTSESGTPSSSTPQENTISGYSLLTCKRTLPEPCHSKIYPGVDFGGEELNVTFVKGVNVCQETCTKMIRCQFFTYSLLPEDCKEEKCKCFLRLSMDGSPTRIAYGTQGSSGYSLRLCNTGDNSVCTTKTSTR
Plasma kallikrein, sequence (P03952 391-638 limits assumed): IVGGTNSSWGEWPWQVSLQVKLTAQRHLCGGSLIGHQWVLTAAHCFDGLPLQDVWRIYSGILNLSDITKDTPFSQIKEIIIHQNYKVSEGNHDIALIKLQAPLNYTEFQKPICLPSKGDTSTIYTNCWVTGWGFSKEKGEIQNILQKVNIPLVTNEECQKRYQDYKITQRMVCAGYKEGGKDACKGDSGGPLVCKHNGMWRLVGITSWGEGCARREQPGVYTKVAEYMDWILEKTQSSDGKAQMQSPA

Compound `CCOc1cccc(CNC(=O)c2cn(Cc3ccc(Cn4cc(C)cn4)cc3)nc2C(F)(F)F)c1` came in with a concentration for half-maximal inhibition (IC50) of 2360 nM.
